Our source for the AC50 values is ChEMBL document CHEMBL5291721, “A preclinical secondary pharmacology resource illuminates target-adverse drug reaction associations of marketed drugs” (Nat Commun, 2023).

Molecules are shown by their SMILES.

For assay [1], the target named is Histamine H3 receptor (Homo sapiens, UniProt Q9Y5N1).
Assay [2] has as its target 5-hydroxytryptamine receptor 2A (Homo sapiens, UniProt P28223). It is filed as functional, cell-based.
Assay [3] addresses Beta-2 adrenergic receptor (Homo sapiens, UniProt P07550).
The target in assay [4] is T1, 5-hydroxytryptamine receptor 2C (Homo sapiens, UniProt P28335).
T1 sequence (P28335 whole entry): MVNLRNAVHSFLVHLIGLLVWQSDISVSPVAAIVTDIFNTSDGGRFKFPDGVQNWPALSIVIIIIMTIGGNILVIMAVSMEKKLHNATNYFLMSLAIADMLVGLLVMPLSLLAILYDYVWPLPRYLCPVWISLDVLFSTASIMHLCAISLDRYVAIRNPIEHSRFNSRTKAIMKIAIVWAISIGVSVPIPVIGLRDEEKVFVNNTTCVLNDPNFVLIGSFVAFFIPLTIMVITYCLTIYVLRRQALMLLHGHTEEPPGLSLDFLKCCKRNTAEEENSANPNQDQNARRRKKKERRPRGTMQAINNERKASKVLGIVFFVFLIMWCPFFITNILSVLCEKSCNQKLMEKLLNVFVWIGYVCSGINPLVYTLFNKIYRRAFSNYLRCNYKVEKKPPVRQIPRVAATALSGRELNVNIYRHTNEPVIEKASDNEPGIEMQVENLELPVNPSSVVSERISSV

The target of assay [5] is T2, Gamma-aminobutyric acid receptor subunit alpha-1 (Rattus norvegicus, UniProt P62813). It is filed as functional.
For assay [6], the target named is Cannabinoid receptor 1 (Homo sapiens, UniProt P21554). It is filed as functional, cell-based.
For assay [7], the target named is Sodium-dependent noradrenaline transporter (Homo sapiens, UniProt P23975).
Assay [8] addresses T3, Neuropeptide Y receptor type 1 (Homo sapiens, UniProt P25929).
T3 sequence (P25929 whole entry): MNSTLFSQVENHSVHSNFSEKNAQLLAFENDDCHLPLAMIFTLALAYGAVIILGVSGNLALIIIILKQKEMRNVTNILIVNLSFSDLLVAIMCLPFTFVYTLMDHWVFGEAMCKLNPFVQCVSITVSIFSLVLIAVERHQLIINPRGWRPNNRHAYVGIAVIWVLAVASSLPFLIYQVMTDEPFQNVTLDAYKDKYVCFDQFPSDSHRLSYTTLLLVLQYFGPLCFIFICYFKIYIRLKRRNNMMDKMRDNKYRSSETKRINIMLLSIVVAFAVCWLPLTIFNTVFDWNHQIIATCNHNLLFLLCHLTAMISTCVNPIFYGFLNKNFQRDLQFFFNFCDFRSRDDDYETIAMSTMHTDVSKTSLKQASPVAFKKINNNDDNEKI

Assay [9] concerns the target Sodium-dependent dopamine transporter (Homo sapiens, UniProt Q01959).
Assay [10] concerns the target cGMP-inhibited 3',5'-cyclic phosphodiesterase 3A (Homo sapiens, UniProt Q14432). It is filed as functional.
In assay [11] the target is Histamine H2 receptor (Homo sapiens, UniProt P25021). It is filed as functional, cell-based.
In assay [12] the target is T2, Gamma-aminobutyric acid receptor subunit alpha-1.
For assay [13], the target named is Motilin receptor (Homo sapiens, UniProt O43193).
The target in assay [14] is T4, Muscarinic acetylcholine receptor M1 (Homo sapiens, UniProt P11229).
T4 sequence (P11229 whole entry): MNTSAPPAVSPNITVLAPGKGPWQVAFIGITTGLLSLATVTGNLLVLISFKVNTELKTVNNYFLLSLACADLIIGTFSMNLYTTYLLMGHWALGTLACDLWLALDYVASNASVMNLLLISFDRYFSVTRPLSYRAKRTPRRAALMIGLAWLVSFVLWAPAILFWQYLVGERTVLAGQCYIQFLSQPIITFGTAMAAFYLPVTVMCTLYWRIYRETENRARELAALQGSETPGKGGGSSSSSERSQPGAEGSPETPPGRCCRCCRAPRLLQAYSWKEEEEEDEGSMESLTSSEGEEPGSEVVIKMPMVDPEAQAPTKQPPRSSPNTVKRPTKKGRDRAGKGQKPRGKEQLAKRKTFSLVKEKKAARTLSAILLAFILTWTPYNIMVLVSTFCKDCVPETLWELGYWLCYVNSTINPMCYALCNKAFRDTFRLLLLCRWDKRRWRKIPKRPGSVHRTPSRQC
It is filed as functional.

The target in assay [15] is Growth hormone secretagogue receptor type 1 (Homo sapiens, UniProt Q92847).
Assay [16] deals with Adenosine receptor A2a (Homo sapiens, UniProt P29274).
Assay [17] has as its target Beta-1 adrenergic receptor (Homo sapiens, UniProt P08588). It is filed as functional.
Assay [18] deals with T5, Alpha-2A adrenergic receptor (Homo sapiens, UniProt P08913).
T5 sequence (P08913 whole entry): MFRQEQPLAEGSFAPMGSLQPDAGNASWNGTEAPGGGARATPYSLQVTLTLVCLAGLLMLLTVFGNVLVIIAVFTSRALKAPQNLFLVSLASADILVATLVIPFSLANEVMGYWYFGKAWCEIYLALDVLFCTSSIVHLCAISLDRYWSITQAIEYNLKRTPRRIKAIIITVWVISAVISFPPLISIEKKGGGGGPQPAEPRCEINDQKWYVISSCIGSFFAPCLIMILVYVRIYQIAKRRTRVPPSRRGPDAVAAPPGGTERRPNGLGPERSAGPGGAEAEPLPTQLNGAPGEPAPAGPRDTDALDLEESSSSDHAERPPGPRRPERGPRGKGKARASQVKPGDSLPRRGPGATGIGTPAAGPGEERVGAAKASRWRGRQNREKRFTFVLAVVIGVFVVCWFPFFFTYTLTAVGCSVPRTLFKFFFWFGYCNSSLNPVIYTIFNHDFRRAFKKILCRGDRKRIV
It is filed as functional, cell-based.

For assay [19], the target named is 5-hydroxytryptamine receptor 2B (Homo sapiens, UniProt P41595). It is filed as functional, cell-based.
Assay [20] addresses Glutamate receptor ionotropic, NMDA 1 (Rattus norvegicus, UniProt P35439).
The target in assay [21] is Sodium-dependent serotonin transporter (Homo sapiens, UniProt P31645).
Further: assay procedure not described here.

T2 sequence (P62813 whole entry): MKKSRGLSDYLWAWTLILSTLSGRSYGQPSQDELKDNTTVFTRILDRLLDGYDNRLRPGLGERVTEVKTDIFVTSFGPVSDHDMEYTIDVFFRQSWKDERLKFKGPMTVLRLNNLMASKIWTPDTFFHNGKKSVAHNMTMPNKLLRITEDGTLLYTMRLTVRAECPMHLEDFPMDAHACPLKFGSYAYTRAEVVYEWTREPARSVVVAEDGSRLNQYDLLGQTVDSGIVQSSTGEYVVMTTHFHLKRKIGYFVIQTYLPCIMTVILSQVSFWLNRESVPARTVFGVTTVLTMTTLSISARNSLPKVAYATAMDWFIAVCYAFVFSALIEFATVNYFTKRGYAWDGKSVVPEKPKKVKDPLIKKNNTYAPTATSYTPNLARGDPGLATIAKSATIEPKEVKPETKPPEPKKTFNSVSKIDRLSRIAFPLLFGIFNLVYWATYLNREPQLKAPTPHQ
Sequence of Histamine H2 receptor (P25021 whole entry): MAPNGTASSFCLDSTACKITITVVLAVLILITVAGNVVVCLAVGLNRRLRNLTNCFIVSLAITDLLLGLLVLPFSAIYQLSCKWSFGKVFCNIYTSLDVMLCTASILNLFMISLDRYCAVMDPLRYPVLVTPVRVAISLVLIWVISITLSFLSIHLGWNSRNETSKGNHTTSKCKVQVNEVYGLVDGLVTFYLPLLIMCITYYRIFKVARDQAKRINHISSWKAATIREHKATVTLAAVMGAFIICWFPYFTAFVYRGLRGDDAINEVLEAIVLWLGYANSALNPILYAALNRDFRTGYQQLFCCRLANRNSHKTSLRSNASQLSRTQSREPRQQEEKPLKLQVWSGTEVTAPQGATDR
Sequence of 5-hydroxytryptamine receptor 2B (P41595 whole entry): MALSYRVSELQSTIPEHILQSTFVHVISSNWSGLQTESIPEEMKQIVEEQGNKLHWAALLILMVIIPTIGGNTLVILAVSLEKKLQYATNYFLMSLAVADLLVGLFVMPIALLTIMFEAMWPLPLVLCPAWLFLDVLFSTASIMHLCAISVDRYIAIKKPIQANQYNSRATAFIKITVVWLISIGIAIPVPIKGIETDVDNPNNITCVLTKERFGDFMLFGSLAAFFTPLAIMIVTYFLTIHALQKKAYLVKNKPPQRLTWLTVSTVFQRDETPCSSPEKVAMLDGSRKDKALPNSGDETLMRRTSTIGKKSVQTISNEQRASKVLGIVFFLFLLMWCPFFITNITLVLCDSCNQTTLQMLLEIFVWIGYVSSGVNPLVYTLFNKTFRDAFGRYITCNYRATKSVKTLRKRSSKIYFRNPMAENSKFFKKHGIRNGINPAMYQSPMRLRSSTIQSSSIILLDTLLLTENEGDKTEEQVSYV
Sequence of Beta-2 adrenergic receptor (P07550 whole entry): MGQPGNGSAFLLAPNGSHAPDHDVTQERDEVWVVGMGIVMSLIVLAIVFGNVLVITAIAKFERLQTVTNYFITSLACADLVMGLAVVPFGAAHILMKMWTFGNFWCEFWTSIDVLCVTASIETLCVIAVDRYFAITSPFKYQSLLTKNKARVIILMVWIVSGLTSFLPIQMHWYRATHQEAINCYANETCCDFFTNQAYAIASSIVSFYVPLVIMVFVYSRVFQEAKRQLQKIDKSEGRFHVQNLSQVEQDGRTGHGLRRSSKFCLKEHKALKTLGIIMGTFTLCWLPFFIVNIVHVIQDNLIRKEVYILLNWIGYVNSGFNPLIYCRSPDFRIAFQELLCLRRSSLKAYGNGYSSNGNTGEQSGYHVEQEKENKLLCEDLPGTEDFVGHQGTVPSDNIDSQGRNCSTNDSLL
Sequence of Sodium-dependent dopamine transporter (Q01959 whole entry): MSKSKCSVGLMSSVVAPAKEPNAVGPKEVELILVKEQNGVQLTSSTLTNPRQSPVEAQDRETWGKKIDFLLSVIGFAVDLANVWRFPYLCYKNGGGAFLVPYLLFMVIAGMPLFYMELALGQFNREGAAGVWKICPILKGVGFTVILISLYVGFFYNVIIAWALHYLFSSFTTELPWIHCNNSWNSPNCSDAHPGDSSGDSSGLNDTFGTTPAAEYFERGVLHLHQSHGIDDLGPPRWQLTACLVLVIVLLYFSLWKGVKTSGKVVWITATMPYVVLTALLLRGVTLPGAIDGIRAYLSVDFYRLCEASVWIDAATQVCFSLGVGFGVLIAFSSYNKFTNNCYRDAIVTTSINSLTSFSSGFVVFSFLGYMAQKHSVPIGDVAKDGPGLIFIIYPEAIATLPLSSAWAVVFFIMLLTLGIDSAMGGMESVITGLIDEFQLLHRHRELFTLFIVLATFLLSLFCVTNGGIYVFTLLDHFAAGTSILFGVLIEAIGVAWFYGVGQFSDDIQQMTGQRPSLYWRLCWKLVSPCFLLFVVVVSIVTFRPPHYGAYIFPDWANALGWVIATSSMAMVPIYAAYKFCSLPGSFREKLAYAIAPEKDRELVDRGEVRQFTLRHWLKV
Sequence of Sodium-dependent noradrenaline transporter (P23975 whole entry): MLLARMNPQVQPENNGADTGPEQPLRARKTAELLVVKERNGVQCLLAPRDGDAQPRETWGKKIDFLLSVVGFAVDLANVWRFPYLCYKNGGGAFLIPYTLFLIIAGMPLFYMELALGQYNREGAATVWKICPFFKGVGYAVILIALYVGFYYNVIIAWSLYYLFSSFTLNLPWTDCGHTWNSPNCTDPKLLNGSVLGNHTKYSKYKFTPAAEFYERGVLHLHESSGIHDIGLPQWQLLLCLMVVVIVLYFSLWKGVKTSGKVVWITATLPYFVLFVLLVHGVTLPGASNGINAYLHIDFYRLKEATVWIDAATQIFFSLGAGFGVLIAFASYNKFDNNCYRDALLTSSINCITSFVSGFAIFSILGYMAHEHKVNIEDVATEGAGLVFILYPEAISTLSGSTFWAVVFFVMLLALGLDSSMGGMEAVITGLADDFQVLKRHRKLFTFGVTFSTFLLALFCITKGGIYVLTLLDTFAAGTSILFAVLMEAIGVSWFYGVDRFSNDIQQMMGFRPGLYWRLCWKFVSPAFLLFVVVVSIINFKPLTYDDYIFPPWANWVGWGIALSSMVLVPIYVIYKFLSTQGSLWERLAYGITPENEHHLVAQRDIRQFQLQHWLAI
Sequence of Histamine H3 receptor (Q9Y5N1 whole entry): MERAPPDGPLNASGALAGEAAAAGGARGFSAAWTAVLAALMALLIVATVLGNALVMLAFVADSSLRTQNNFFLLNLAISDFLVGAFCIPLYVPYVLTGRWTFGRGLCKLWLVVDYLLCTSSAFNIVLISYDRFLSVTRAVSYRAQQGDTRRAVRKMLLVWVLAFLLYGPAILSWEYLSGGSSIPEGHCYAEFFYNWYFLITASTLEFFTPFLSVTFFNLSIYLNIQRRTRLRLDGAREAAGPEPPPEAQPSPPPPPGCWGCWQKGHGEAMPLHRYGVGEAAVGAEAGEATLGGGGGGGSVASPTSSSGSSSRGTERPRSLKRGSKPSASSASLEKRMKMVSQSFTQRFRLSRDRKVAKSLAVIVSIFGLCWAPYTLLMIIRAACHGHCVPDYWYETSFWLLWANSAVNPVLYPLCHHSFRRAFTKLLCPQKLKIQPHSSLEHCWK
Sequence of cGMP-inhibited 3',5'-cyclic phosphodiesterase 3A (Q14432 whole entry): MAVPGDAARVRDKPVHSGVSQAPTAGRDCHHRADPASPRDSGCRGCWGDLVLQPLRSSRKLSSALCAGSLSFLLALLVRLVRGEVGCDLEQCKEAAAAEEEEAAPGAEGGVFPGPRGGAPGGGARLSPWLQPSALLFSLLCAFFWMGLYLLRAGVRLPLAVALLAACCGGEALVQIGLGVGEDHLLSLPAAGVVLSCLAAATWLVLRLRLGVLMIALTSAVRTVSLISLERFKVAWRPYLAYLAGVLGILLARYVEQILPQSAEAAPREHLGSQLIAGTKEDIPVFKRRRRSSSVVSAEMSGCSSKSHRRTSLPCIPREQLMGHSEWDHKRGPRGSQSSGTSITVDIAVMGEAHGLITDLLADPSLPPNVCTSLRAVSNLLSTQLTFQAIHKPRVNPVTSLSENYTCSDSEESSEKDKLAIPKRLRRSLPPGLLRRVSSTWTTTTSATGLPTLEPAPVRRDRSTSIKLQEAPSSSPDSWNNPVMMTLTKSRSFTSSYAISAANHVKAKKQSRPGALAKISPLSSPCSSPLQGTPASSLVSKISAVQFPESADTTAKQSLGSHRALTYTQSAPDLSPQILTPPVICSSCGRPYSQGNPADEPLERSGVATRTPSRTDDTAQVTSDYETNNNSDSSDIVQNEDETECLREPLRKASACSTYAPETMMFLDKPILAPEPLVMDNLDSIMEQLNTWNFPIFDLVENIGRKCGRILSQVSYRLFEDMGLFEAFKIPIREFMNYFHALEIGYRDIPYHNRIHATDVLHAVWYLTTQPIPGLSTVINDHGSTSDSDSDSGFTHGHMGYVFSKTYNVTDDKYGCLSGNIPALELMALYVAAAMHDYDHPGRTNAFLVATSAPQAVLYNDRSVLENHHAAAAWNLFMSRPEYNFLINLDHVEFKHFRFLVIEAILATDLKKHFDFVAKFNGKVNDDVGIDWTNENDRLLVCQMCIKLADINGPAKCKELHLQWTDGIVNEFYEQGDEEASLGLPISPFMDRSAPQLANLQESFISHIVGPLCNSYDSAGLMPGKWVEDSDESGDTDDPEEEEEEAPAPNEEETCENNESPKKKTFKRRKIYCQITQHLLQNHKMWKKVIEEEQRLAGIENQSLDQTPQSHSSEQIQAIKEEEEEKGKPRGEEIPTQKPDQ
Sequence of Growth hormone secretagogue receptor type 1 (Q92847 whole entry): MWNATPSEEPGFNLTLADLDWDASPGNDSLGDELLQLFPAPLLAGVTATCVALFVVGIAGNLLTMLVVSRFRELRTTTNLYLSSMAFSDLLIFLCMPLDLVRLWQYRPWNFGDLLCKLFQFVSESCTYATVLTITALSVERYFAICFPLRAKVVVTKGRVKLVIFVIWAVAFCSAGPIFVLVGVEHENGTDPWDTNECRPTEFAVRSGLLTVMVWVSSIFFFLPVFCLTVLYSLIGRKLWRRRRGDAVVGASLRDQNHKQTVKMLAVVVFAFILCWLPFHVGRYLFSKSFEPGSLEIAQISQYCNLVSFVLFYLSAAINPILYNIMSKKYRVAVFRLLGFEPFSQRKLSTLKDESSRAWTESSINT

Broadly, the AC50 is the concentration giving half of the maximal activity seen. `CCOC(=O)[C@H](CCc1ccccc1)N[C@H]1CCCN2CCC[C@@H](C(=O)O)N2C1=O` [CILAZAPRIL]: the AC50 in assay [1], in assay [2], in assay [3], in [4], in assay [5] and in [6] was > 30 µM throughout. The AC50 in assay [7], in [8], in assay [9], in assay [10], in assay [11] and in assay [12] was > 30 µM throughout. The AC50 in assay [13], in assay [14], in assay [15], in [16], in assay [17] and in [18] was > 30 µM in each case. The AC50 in assay [19], in [20] and in assay [21] was > 30 µM each time.
For the compound `CN1CCc2cccc3c2[C@H]1Cc1ccc(O)c(O)c1-3` [APOMORPHINE], the AC50 in [1] is > 10 µM; in [2], 1.79 µM; in [3] it was > 10 µM; in assay [4], 7.3 µM; in assay [5], > 10 µM; in assay [6], > 30 µM. For the same compound, the AC50 was > 30 µM in [7]; > 20 µM in assay [8]; > 30 µM in assay [9]; > 30 µM in [10]; > 10 µM in assay [11]; > 10 µM in assay [12]. The AC50 in [13] is > 10 µM; in assay [14], > 30 µM; in assay [15], > 30 µM; in assay [16] it was > 30 µM; in assay [17], > 10 µM; in assay [18] it was 3.8 µM. Besides, the AC50 in assay [19] is 4.7 µM; in assay [20] it was > 10 µM; in assay [21], 21.9 µM.
